Data: publication PMC8484140 (Targeted Oncology, 2021)

Legend:
[1] = Pharmacokinetics of exemestane, additional 21 patients; type: in vivo; details: female, human, plasma, oral
advanced breast cancer = details: in combination with exemestane; cited from earlier work

Row | Compound | Tmax [1] [h] | half-life [1] [h] | AUC(0-t) ([1]; 25 mg) [µg·h/mL] | Cmax ([1]; 25 mg) [µg/mL] | Tmax ([1]; 25 mg) [h] | half-life ([1]; 25 mg) [h] | Median PFS (advanced breast cancer) [months] | Neutropenia, patients (advanced breast cancer) [%] | Thrombocytopenia, patients (advanced breast cancer) [%]
1 | C=C1C[C@@H]2[C@H](CC[C@]3(C)C(=O)CC[C@@H]23)[C@@]2(C)C=CC(=O)C=C12 [Exemestane] | 3.95 | 5.68 | 0.0546 | 0.017 | 1.02 | 6.24 |  |  | 
2 | Nc1cc(F)ccc1NC(=O)c1ccc(CNC(=O)/C=C/c2cccnc2)cc1 [chidamide] |  |  |  |  |  |  | 7.4 | 51 | 28
